Measurements reported in PubChem BioAssay (NCI).
Several values for one entry are separate records, joined by “and”; a condition that tells them apart may be missing. Equal values may be shown once.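 96-well plates; 48 h exposure; 5 concentrations. Endpoints by linear interpolation between flanking doses. Not reached: highest tested concentration assigned. The concentration for 50% growth inhibition is given as GI50. At the TGI there is no net growth.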

Legend:
Assay in all cases: NCI tumour cell line growth inhibition, 48 h
[1] = system: DMS 273 small cell lung
[2] = system: HOP-18 NSCLC
[3] = system: KM20L2 colon
[4] = system: LXFL 529 NSCLC
[5] = system: M19-MEL melanoma
[6] = system: RXF-631 renal
[7] = system: SNB-78 CNS
[8] = system: XF 498 CNS
[9] = system: MDA-N
[10] = system: P388 leukemia
[11] = system: P388/ADR leukemia

CCOC(=O)N1C/C(=C\c2ccc(N(C)C)cc2)C(=O)/C(=C/c2ccc(N(C)C)cc2)C1
TGI [1]: > 100 µM
TGI [2]: > 100 µM
TGI [3]: > 100 µM
TGI [4]: > 100 µM
TGI [5]: > 100 µM
TGI [6]: > 100 µM
TGI [7]: > 100 µM

Nc1ncnc2c1ncn2C1(CO)OC(CO)C(O)C1O (centres undefined)
TGI [1]: > 100 µM
TGI [2]: > 100 µM
TGI [3]: > 100 µM
TGI [4]: > 100 µM
TGI [6]: > 100 µM
TGI [7]: > 100 µM
TGI [8]: > 100 µM

CC[P+](C)(C)CC
TGI [1]: > 100 µM
TGI [2]: > 100 µM
TGI [3]: > 100 µM
TGI [4]: > 100 µM
TGI [5]: > 100 µM
TGI [6]: > 100 µM
TGI [7]: > 100 µM

Cc1ccc(C)c(NC(=O)C(=O)C(C2C(C)CC(=O)C2CC(=O)O)[N+](=O)[O-])c1 (centres undefined)
TGI [3]: > 100 µM
TGI [4]: > 100 µM
TGI [5]: > 100 µM
TGI [6]: > 100 µM
TGI [7]: > 100 µM
TGI [8]: > 100 µM

C[C@H]1CCC/C=C/[C@@H]2C[C@H](O)C[C@H]2[C@H](O)C(O)C(O)C(=O)O1 (some centres undefined)
GI50 [9]: 4.53 µM
TGI [9]: > 100 µM

O=S(=O)([O-])c1ccc(C=Nc2ccccc2)c([O-])c1.O=S(=O)([O-])c1ccc(C=Nc2ccccc2)c([O-])c1.[Co+2]
GI50 [2]: 43.1 µM
TGI [2]: > 100 µM
GI50 [3]: 1.76 µM
TGI [3]: > 100 µM
GI50 [5]: 78.7 µM
TGI [5]: > 100 µM
GI50 [7]: 51.7 µM
TGI [7]: > 100 µM
GI50 [8]: 20.6 µM
TGI [8]: > 100 µM

CCCOC(=O)C1C(c2ccc(OC)cc2)NC(c2ccc(OC)cc2)C(C(=O)OCCC)S1(=O)=O (centres undefined)
GI50 [1]: > 100 µM
TGI [1]: > 100 µM
GI50 [3]: > 100 µM
TGI [3]: > 100 µM
GI50 [4]: > 100 µM
TGI [4]: > 100 µM
GI50 [6]: > 100 µM
TGI [6]: > 100 µM
GI50 [7]: > 100 µM
TGI [7]: > 100 µM

Cc1ccc(S(=O)(=O)NC(=O)Nc2ncn[nH]2)cc1
TGI [9]: > 100 µM

O=C1OC(=O)c2c1cc1cc3c(cc1c2-c1ccc2c(c1)OCO2)OCO3
TGI [9]: > 100 µM

CN(C)Cc1nsc(N(C)C)n1
TGI [9]: > 100 µM

COc1ccc(C)cc1-c1ccc(-c2cc(C)ccc2OC)o1
TGI [1]: > 100 µM
TGI [3]: > 100 µM
TGI [4]: > 100 µM
TGI [5]: > 100 µM
TGI [6]: > 100 µM
TGI [7]: > 100 µM

COc1ccc(C2=NC(CO)[C@H](c3ccccc3)O2)cc1OC (some centres undefined)
TGI [1]: > 100 µM
TGI [3]: > 100 µM
TGI [4]: > 100 µM
TGI [5]: > 100 µM
TGI [6]: > 100 µM
TGI [8]: > 100 µM

COC(=O)C(C(=O)C(=O)Nc1nc2ccc(OC)cc2s1)c1cnc2ccccc2n1 (centres undefined)
TGI [3]: > 100 µM
TGI [4]: > 100 µM
TGI [5]: > 100 µM
TGI [7]: > 100 µM
TGI [8]: > 100 µM

CC1=C(C(=O)Nc2cc(F)c(F)cc2F)C(c2ccc(N(C)C)cc2)C(C(=O)Nc2cc(F)c(F)cc2F)=C(C)N1
TGI [1]: > 100 µM
TGI [3]: > 100 µM
TGI [4]: 63 µM
TGI [5]: > 100 µM
TGI [6]: 86.2 µM
TGI [7]: 65.4 µM

O=C1/C(=C/c2ccccc2)CN(C(=O)/C=C/c2ccccc2)C/C1=C\c1ccccc1
TGI [1]: > 100 µM
TGI [2]: 97.6 µM
TGI [3]: > 46.2 µM
TGI [4]: 29.1 µM
TGI [5]: > 22.9 µM
TGI [9]: 3.43 µM
TGI [6]: > 100 µM
TGI [7]: > 73 µM
TGI [8]: 38 µM

O=S(=O)(c1ccccc1)C1(C2(S(=O)(=O)c3ccccc3)CCN=N2)CCN=N1 (centres undefined)
TGI [1]: > 100 µM
TGI [4]: > 100 µM
TGI [5]: > 100 µM
TGI [8]: > 100 µM

NNC(=O)C(=O)N/N=C1\CCCC1C(=O)CCC(=O)Nc1cccc(Cl)c1 (centres undefined)
TGI [2]: > 100 µM
TGI [3]: > 100 µM
TGI [4]: > 100 µM
TGI [5]: > 100 µM
TGI [6]: > 100 µM
TGI [7]: > 100 µM
TGI [8]: > 100 µM

O=c1oc2cc(O)ccc2cc1-c1nc2ccccc2o1
TGI [9]: > 100 µM

CC(C)C[C@H](NC(=O)[C@@H](N)Cc1cccc2ccccc12)B(O)O
GI50 [9]: < 0.01 µM

CCOC(=O)C(c1ccsc1)P(=O)(OCC)OCC (centres undefined)
TGI [1]: 26.8 µM
TGI [2]: 43.8 µM
TGI [3]: 29 µM
TGI [4]: 26.7 µM
TGI [5]: 25.7 µM
TGI [7]: 76.9 µM
TGI [8]: 38.4 µM

CN(COC(=O)C(C)(C)C)c1nc(N(C)COC(=O)C(C)(C)C)nc(N(C)COC(=O)C(C)(C)C)n1
TGI [9]: 80.3 µM

CC(=O)CC(=O)Nc1ccc(OS(N)(=O)=O)cc1
TGI [1]: > 100 µM
TGI [2]: > 100 µM
TGI [3]: > 100 µM
TGI [4]: > 100 µM
TGI [5]: > 100 µM
TGI [6]: > 100 µM
TGI [7]: > 100 µM
TGI [8]: > 100 µM

NNC(=S)N/N=C(\c1nc2ccc(Cl)cc2[nH]c1=O)C(O)c1cccc([N+](=O)[O-])c1 (centres undefined)
TGI [1]: > 58.7 µM
TGI [2]: > 100 µM
TGI [3]: > 100 µM
TGI [4]: > 100 µM
TGI [5]: > 100 µM
TGI [6]: > 100 µM
TGI [7]: > 100 µM
TGI [8]: > 100 µM

CN1C=C(C(N)=O)Cc2ccsc21
TGI [1]: > 100 µM
TGI [2]: > 100 µM
TGI [3]: > 100 µM
TGI [4]: > 100 µM
TGI [5]: > 100 µM
TGI [7]: > 100 µM

CC[C@@]1(O)C(=O)OCc2c1cc1n(c2=O)Cc2cc3c(N)c(OC)ccc3nc2-1
GI50 [1]: < 0.0166 µM
TGI [1]: 0.36 µM
GI50 [2]: 0.14 µM
TGI [2]: > 100 µM
GI50 [3]: 0.125 µM
TGI [3]: 1.8 µM
GI50 [4]: 0.953 µM
TGI [4]: > 25.6 µM
GI50 [5]: 0.159 µM
TGI [5]: 1.46 µM
GI50 [6]: 0.176 µM
TGI [6]: 2.74 µM
GI50 [7]: 1.22 µM
TGI [7]: > 100 µM
GI50 [8]: 0.389 µM
TGI [8]: 4.14 µM

N/N=C1\C(=O)N(c2ccc(Cl)c(Cl)c2)C(=O)C1C(=O)Nc1ccc(Cl)c(Cl)c1 (centres undefined)
TGI [2]: > 100 µM
TGI [3]: > 100 µM
TGI [4]: > 100 µM
TGI [5]: > 100 µM
TGI [6]: > 100 µM
TGI [7]: 79.5 µM

O=[N+]([O-])C(=C1c2ccccc2-c2ccccc21)[N+](=O)[O-]
TGI [1]: > 10 µM
TGI [3]: > 100 µM
TGI [4]: > 100 µM
TGI [7]: > 100 µM

CC12CC(Br)(Br)C(=O)C3C1CCCC32
TGI [1]: 18.2 µM
TGI [2]: 22.6 µM
TGI [3]: 37.9 µM
TGI [4]: 6.83 µM
TGI [5]: 22.8 µM
TGI [9]: 9.66 µM
TGI [7]: 44.8 µM
TGI [8]: 21 µM

CCCCCCCCCCCCNC(=S)OCCCC
TGI [1]: > 100 µM
TGI [2]: > 100 µM
TGI [3]: > 100 µM
TGI [4]: > 100 µM
TGI [5]: > 100 µM
TGI [6]: > 100 µM
TGI [7]: > 100 µM
TGI [8]: > 100 µM

O=C1CC2=CCCC2O1 (centres undefined)
TGI [1]: > 100 µM
TGI [4]: > 100 µM
TGI [5]: > 100 µM
TGI [7]: > 100 µM
TGI [8]: > 100 µM

COc1cc(Br)c(C=Nc2cccc3ccc(OS(=O)(=O)c4ccc([N+](=O)[O-])cc4)cc23)cc1OC
TGI [4]: > 100 µM
TGI [5]: > 100 µM
TGI [7]: > 100 µM

Cc1ncc2c(n1)CCC1=C2OS(=O)(=O)CC1N(C)C (centres undefined)
TGI [9]: > 100 µM

COc1ccc(-c2cc(-c3ccco3)c(C#N)c(=O)n2C2OC(COC(C)=O)C(OC(C)=O)C(OC(C)=O)C2OC(C)=O)cc1 (centres undefined)
TGI [1]: > 100 µM
TGI [2]: > 100 µM and 64.2 µM
TGI [3]: > 100 µM
TGI [4]: 59.6 µM
TGI [5]: > 100 µM
GI50 [6]: > 100 µM and 14.3 µM
TGI [6]: > 100 µM and 46.5 µM
TGI [7]: > 100 µM

CC(C)CC1CC2C(=O)N(c3ccccc3)C(=O)C2c2[nH]c3ccccc3c21 (centres undefined)
TGI [1]: > 100 µM
TGI [2]: 31.4 µM
TGI [3]: > 100 µM
TGI [4]: > 100 µM
TGI [5]: > 100 µM
TGI [6]: 51.8 µM
TGI [7]: > 100 µM
TGI [8]: 48.6 µM

CCOC(=O)c1ccc(N[C@@H]2c3cc4c(cc3C(c3cc(OC)c(O)c(OC)c3)[C@H]3C(=O)OCC32)OCO4)cc1 (some centres undefined)
GI50 [1]: 0.134 µM and 0.156 µM
TGI [1]: 3.85 µM
TGI [3]: 10.7 µM
TGI [4]: 34.7 µM
GI50 [5]: 0.697 µM
TGI [5]: 9.13 µM
TGI [10]: 0.0208 µM
TGI [11]: 0.0959 µM
TGI [7]: 66.2 µM
GI50 [8]: 0.418 µM
TGI [8]: 0.979 µM and 5.6 µM

CC1(C)CCOC(Sc2ccccc2)C1 (centres undefined)
TGI [1]: > 100 µM
TGI [3]: > 100 µM
TGI [4]: > 100 µM
TGI [5]: > 100 µM
TGI [7]: > 100 µM
TGI [8]: > 100 µM

CC(C)OC(=O)NNc1c(Cl)cc(Cl)cc1Cl
TGI [9]: > 100 µM

COC(=O)N1C=CC2=C(C)C3Nc4ccccc4C3C(C)=C2C1 (centres undefined)
TGI [1]: 11.7 µM
TGI [3]: > 100 µM
TGI [4]: 9.94 µM
TGI [5]: > 100 µM
TGI [7]: 3.66 µM
TGI [8]: 7.87 µM

O=C1C2C3C=CC(C2C(=O)N1CN1CCOCC1)C1C2C(=O)N(CN4CCOCC4)C(=O)C2C31 (centres undefined)
TGI [1]: 33.3 µM
TGI [2]: 60.2 µM
TGI [3]: 63.1 µM
TGI [4]: 36.1 µM
TGI [5]: 40.5 µM
TGI [9]: > 100 µM
TGI [6]: 74.9 µM
TGI [7]: > 100 µM

CC1Nc2ccccc2NC1C=C(C#N)C#N (centres undefined)
TGI [1]: 25.1 µM
TGI [2]: 40.1 µM
TGI [3]: 31 µM
TGI [4]: 25.7 µM
TGI [5]: 30.5 µM
TGI [6]: 24.4 µM
TGI [7]: 36.4 µM
TGI [8]: 31.1 µM
